Source: patent US20050245397A1, “Use of nickel to correct growth disorders in plants” (priority 2004, published 2005)
Where two headings read alike, the source gives them in different places.

What was measured:
[1] = system: pecan seedlings exhibiting severe nickel deficiency, i.e., mouse-ear; type: in vivo, pecan [Carya illinoinensis (Wangenh.) K. Koch]; conditions: foliar spray in the spring during bud break, tested 0-1000 ppm
[2] = system: severely mouse-eared 'Desirable' pecan trees; type: in vivo; conditions: October foliar spray till run-off, NiSO4.6H2O about 3.5 g/L or CuSO4.5H2O about 4 g/L with urea and surfactant, orchard transplants, rated following May, scale 1 = no symptoms to 10 = most severe
[3] = system: pecan trees exhibiting severe mouse-ear; type: in vivo; conditions: early April foliar spray at late parachute stage, treatments as in Example 8, orchard transplants, subsequent shoot growth, scale 1-10
[4] = system: 1-year-old 'Desirable' pecan seedlings potted in mouse-ear orchard soil; assay: October foliar copper or nickel at 0-8X on potted greenhouse pecan seedlings, mouse-ear rated in spring; type: in vivo, pecan [Carya illinoinensis (Wangenh.) K. Koch]; conditions: autumn foliar copper 1X-8X, X = about 1.98 g copper sulfate per liter
pecans with mouse-ear = assay: Inventors' orchard observations of soil or foliar copper, phosphorus, sulfur on mouse-ear; type: in vivo, pecan [Carya illinoinensis (Wangenh.) K. Koch]; conditions: for effect on mouse-ear, soil application of high amounts: 1st generation orchard site

Molecule: nickel lignosulfonate
- nickel concentration at which foliar application corrected mouse-ear / nickel deficiency [1]: ≥ 10 ppm

Molecule: O.O.O.O.O.O=S(=O)([O-])[O-].[Cu+2] [Copper, CuSO4.5H2O]
- Mouse-ear Severity (Class) [2]: 7.6 a Class
- Mouse-ear Severity (Class) ([2]; listed as copper): 7.6 Class
- Mouse-ear Severity (Class) [3]: 8.1 a Class
- Mouse-ear Severity (Class) ([3]; listed as copper): about 8.1 Class
- effect on mouse-ear severity the following spring [4]: failed to correct mouse-ear and actually increased severity of mouse-ear as the concentration of applied copper increased
- effect on mouse-ear, soil applied at time of transplanting (pecans with mouse-ear; 2nd generation site): corrects mouse-ear on one 2nd generation site
- effect on mouse-ear, foliar applications (pecans with mouse-ear; in vivo): little or no curative influence on mouse-ear severity
- effect on mouse-ear, topical application to the soil (pecans with mouse-ear; trees with mild to moderate mouse-ear on a 1st generation site): largely cured of mouse-ear by the 3rd year

Molecule: [P] [phosphorus]
- effect on mouse-ear, soil application of high amounts (pecans with mouse-ear): corrected mouse-ear symptoms three years after application

Molecule: S1SSSSSSS1 [sulfur]
- effect on mouse-ear, soil application of high amounts (pecans with mouse-ear): corrected mouse-ear symptoms three years after application
